{
  "source": "patent US12285434B2",
  "about": "“Therapeutic, preventive, or improvement agent for inflammatory disease and allergic disease” (The University of Tokyo, priority 2018, dated 2025)",
  "key": {"HUVECs": {"test_system": "HUVECs", "experiment": "Endothelial barrier function: transendothelial electrical resistance (TER)", "type": "cell-based, human", "conditions": "histamine 10 μM, no pretreatment", "description": "(§1) In Examples 4 to 6, human umbilical vein endothelial cells (hereinafter, sometimes referred to as “HUVECs”, manufactured by Lonza) were cultured in EGM-2 (manufactured by Lonza K.K.). These cells (passages 4 to 9) were used for experiments after 4-hour starvation in EBM-2 (manufactured by Lonza K.K.) containing 2% FBS.\nThe in vitro endothelial barrier function was evaluated by measuring the transendothelial electrical resistance (hereinafter, sometimes referred to as “TER”) of the HUVECs prepared in the above item (1) over time. Specifically, the transendothelial electrical resistance was measured using an xCELLigence Real-Time Cell Analyzer DP system (manufactured by Roche). The system monitors changes in TER across an interdigitated microelectrode at the bottom of tissue culture E-plates (manufactured by Roche). The HUVECs (8,000 cells) were plated on the E-plates and incubated until confluent. Then, the following operation (a) or (b) was performed.\n(a) Each reagent was added to plates on which the HUVECs were cultured, so as to give a vehicle, 1 U/mL thrombin, 1 μM forskolin, or 0.1 μM or 0.3 μM 5,6-DiHETE (FIGS. 4A and 4B).\n(b) A vehicle or […] was added to plates on which the HUVECs were cultured, so as to attain 10 μM. […] Thirty (30) minutes after the addition, 10 μM histamine was added to each plate 30 minutes after the addition (FIGS. 4C and 4D).\nIn the above operations (a) and (b), the TER was measured every 60 seconds. For normalization, the cell index value at each time point is shown as a ratio relative to the initial value. The maximum normalized cell index after stimulation was quantified and represented as maximal response. Note that it is known that the disruption of the endothelial barrier function lowers the TER, but that the enhancement of the endothelial barrier function increases the TER."}, "NO production in HUVECs": {"test_system": "NO production in HUVECs", "experiment": "Histamine-induced NO production (nitrite and nitrate)", "type": "cell-based, human", "conditions": "histamine 10 μM, no pretreatment", "description": "as §1\nThe HUVECs were washed three times with HEPES and incubated in HEPES supplemented with 1 mM L-arginine and 10 μM tetrahydrobiopterin. After equilibration for 30 minutes, the medium was exchanged, and the cells were incubated for additional 30 minutes. […] The conditioned media before and after the stimulation (100 μL each) were collected and centrifuged in each amount of 300 g for 3 minutes. The supernatants were collected, and used to measure nitrite and nitrate, as stable metabolites of NO, by an ENO-20 NOx analyzer (manufactured by Eicom Corporation). The degrees of increases of nitrite and nitrate levels after the stimulation were normalized with cellular protein contents."}, "[1]": {"test_system": "calcium ion concentration in HUVECs", "experiment": "Histamine-induced increase of calcium ion concentration (fura-2)", "type": "cell-based, human", "conditions": "histamine 10 μM, no pretreatment", "description": "These cells (passages 4 to 9) were used for experiments after 4-hour starvation in EBM-2 (manufactured by Lonza K.K.) containing 2% FBS.\nHUVECs were incubated with a calcium fluorescence indicator (3 μg fura-2/AM containing 0.11% Cremophor EL) for 30 minutes and washed with an HEPES buffer three times. […] Then, 5 minutes after the addition of each reagent, histamine was added so as to attain 10 μM. In addition, a group to which histamine was added so as to attain 10 μM without pretreatment was also prepared. A cover slip was placed in a specialized airtight chamber mounted onto the stage of a microscope maintained at 37° C. The HUVECs were excited at 340 nm and 380 nm and the emitted fluorescence signal was measured every 3 seconds at 510 nm for 60 seconds. The fluorescence ratio (R:F340/F380) was determined using a fluorescence imaging system (AQUACOSMOS, manufactured by Hamamatsu Photonics K.K.). After the experiment, 1 μM ionomycin was added and the fluorescence changes were measured in the presence of 0 or 1.5 mM calcium ions. The calcium ion concentration was indicated as A fluorescence ratio. AUC was calculated 1 minute after each stimulus to evaluate the A fluorescence ratio. It is known that the increase of calcium ion concentration in endothelial cells promotes NO production by eNOS phosphorylation and […] smooth muscle cells (Garcia-Cardena, G. et al., Nature, 392: 821-824(1998); and Luo, Z. et al., The Journal of clinical investigation, 106: 493-499(2000))."}, "ear vessels of the mice": {"test_system": "ear vessels of the mice", "experiment": "In vivo microscopy of ear vessels: FITC-dextran leakage and vascular diameter after histamine", "design": "species or system mouse", "conditions": "histamine 400 μg by instillation, no pretreatment", "description": "To visualize the ear vessels of the mice, 70 kDa fluorescein isothiocyanate-dextran (10 mg/kg, manufactured by Sigma-Aldrich) was injected intravenously. Then, immediately after the administration of fluorescein isothiocyanate-dextran, 5,6-DiHETE (0.1 μg) was administered by instillation (percutaneously administered) as a pretreatment, and this group of mice was designated as a “5,6-DiHETE-administered group.” As a control group, a group of mice not administered with 5,6-DiHETE was designated as a “[…]-administered group”. Then, 15 minutes after the administration by instillation, histamine (400 μg) was administered by instillation (percutaneously administered) into the ventral surface of the ears for both the groups. Next, the mice were placed on the stage of a microscope confocal microscope (ECLIPSE Ti with C1 confocal system, manufactured by Nikon Corporation), and their body temperatures were maintained at 37° C. Dextran leakage and vascular diameter in the ears were monitored every minute in a period from 0 to 30 minutes after the administration of histamine using EZ-C1 Free Viewer (manufactured by Nikon Corporation), and the dextran leakage, artery diameter and vein diameter were quantified according to the description of Omori, K. et al., British Journal of Pharmacology, 171:4879-4889 (2014). It is known that smooth muscle contraction reduces the downstream blood flow and limits the vascular leakage, whereas smooth muscle relaxation (increase of vascular diameter) increases the blood flow, thereby leading to vascular leakage."}, "anaphylaxis model mice": {"test_system": "anaphylaxis model mice", "experiment": "Histamine-induced anaphylaxis: blood pressure and body temperature", "type": "in vivo, mouse (C57BL/6)", "conditions": "30 minutes after histamine 50 mg/kg intravenously, no pretreatment", "description": "Histamine (50 mg/kg) lysed in a physiological saline solution was intravenously administered to C57BL/6 strain mice (male, 8 to 12 weeks old) to prepare anaphylaxis model mice (hereinafter, sometimes referred to as “anaphylaxis group”). […] L-NAME is an NO synthesis inhibitor. As indices of anaphylactic symptoms, a body temperature decrease and a blood pressure decrease were observed."}, "[2]": {"test_system": "histamine-induced vascular permeability in mouse ears", "experiment": "Modified Miles assay: histamine-induced vascular hyperpermeability (Evans blue extravasation)", "type": "in vivo, mouse (C57BL/6)", "conditions": "400 μg histamine, no pretreatment", "description": "Fifteen (15) minutes after the intracutaneous injection, a vehicle (80% acetone) or histamine (400 μg, manufactured by Molecular Probes) was percutaneously administered to the ventral surface of the ears. To evaluate vascular permeability, Evans blue (50 mg/kg, manufactured by Sigma) was injected intravenously 5 minutes after the administration of histamine. The mice were then euthanized by cervical dislocation 30 minutes after the injection of Evans blue. The ears were dissected, dried at 55° C., and weighed. Extravasated Evans blue present in the ears was extracted in formamide (manufactured by Molecular Probes), and quantified spectrophotometrically (manufactured by PerkinElmer Japan Co., Ltd.) at a wavelength of 610 nm."}},
  "data": [
    {"smiles": "NCCc1c[nH]cn1", "note": "[histamine, reference compound]", "values": [
      {"measurement": "TER, minimum (normalized cell index)", "setting": "HUVECs", "result": "0.82±0.05", "unit": "fold"},
      {"measurement": "NO production", "setting": "NO production in HUVECs", "result": "0.31±0.06", "unit": "pmol/μg protein"},
      {"measurement": "calcium ion concentration, AUC at 1 minute after stimulation", "setting": "[1]", "result": "12.2±2.1"},
      {"measurement": "artery diameter as compared with arteries nonstimulated with histamine", "setting": "ear vessels of the mice", "result": "178±13", "unit": "%"},
      {"measurement": "body temperature decrease", "setting": "anaphylaxis model mice", "result": "−2.2±0.3", "unit": "°C"},
      {"measurement": "blue dye extravasation (Evans blue) in ear", "setting": "[2]", "result": "0.14 ± 0.02", "unit": "µg/mg"}
    ]}
  ]
}
